Data on 2 compounds can be found in patent US20230165970A1, “COMPOSITIONS AND METHODS FOR THE TREATMENT OF BACTERIAL INFECTIONS” (priority 2017, published 2023).

Test [1] deals with Ab 19606 (COLhet^R). The test is classed as cell-based, Acinetobacter baumannii. To be noted: media CA-MHB.
The subject of test [2] is Ec 25922. The test is classed as cell-based, Escherichia coli. As to conditions: media CA-MHB. The method, boiled down:
(§1)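 Strains are exposed to 8- or 12-step twofold compound dilutions, conjugates being assayed in RPMI B. For Pa LES431, parallel runs include 50% heat-inactivated FBS. Plates incubate overnight, 16-20 h at 35° C.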

Test [3] deals with Ec 2469. It is filed as cell-based, Escherichia coli. To be noted: Ec 2469; media CA-MHB. The method, boiled down:
as §1

Test [4] has as its system Sa RN. The test is classed as cell-based.
The test system of test [5] is Ab AB5075. It is filed as cell-based, Acinetobacter baumannii. To be noted: Ab AB5075; media CA-MHB. The method, boiled down:
as §1

The subject of test [6] is Ab 8990 (COL^R). It is filed as cell-based, Acinetobacter baumannii. To be noted: Ab 8990 (COL^R); media CA-MHB. In short, it runs like this: as §1
Test [7] concerns Ec COL^R LPS: colistin-resistant (MCR-1) strain (AR0349). As to the kind of experiment: Lethal mouse endotoxemia model (LD95 purified LPS IP). The test is classed as in vivo, C57BL/6J mice. To be noted: (D) Endotoxemia (Ec COL^R LPS); 5 mg/kg IV, single, -1 hr; survival after three days. As to the method: Studies (B)-(D) shown in Table 22 summarizes the efficacy of compounds in lethal models of endotoxemia. In these models 6 week old C57I/6J immune competent mice (Jackson Laboratory) were challenged IP with purified lipopolysaccharide (LPS) in PBS at an LD95. For all studies, LPS was obtained from Sigma (catalog numbers in the table footnote) or were purified using a kit obtained from iNtRON Biotechnology Inc. (cat #17141). One hour prior to LPS challenge mice were dosed with test articles as indicated (Table 22). The results of these studies indicate that compounds are able to neutralize the lethal effects of LPS in a severe endotoxemia/sepsis model.
End point was survival after 3 days. Ec: E. coli 0111:B34, Sigma cat #L4130; Ab: Acinetobacter baumannii 5075; Kp: Klebsiella pneumonia 10, Sigma cat #L4268; Ng: Neisseria gonorrhoeae 19424; Ec 026:B86, Sigma cat #L2762; Pm: Proteus mirabilis, Sigma cat #SMB00704; Sm: Serratia marcescens, Sigma cat #L6016; Pa: Pseudomonas aeruginosa 10. […] Purified LPS used for all endotoxemia studies and if not denoted by a Sigma catalog number the LPS was purified in-house using an iNtRON #17141 purification kit. *Delayed death, at the time Fc only animals reached 100% mortality all Conjugate 41 mice were still alive.

In test [8] the test system is Ab AB58705 (COL^R) IpxD, mut. (no LPS). The test is classed as cell-based, Acinetobacter baumannii. As to conditions: media CA-MHB.
For test [9], the system named is Kp 43816. It is filed as cell-based, Klebsiella pneumoniae. To be noted: Kp 43816; media CA-MHB. The method, boiled down:
as §1

The test system of test [10] is Kp 6951 (COL^R). It is filed as cell-based, Klebsiella pneumoniae. As to conditions: Kp 6951 (COL^R); media CA-MHB. In short, it runs like this:
as §1

For test [11], the system named is Kp 10031. It is filed as cell-based, Klebsiella pneumoniae. To be noted: Kp 10031; media CA-MHB. In short, it runs like this: as §1
In test [12] the test system is Pa 27853. It is filed as cell-based, Pseudomonas aeruginosa. To be noted: Pa 27853; media CA-MHB. The method, boiled down: as §1
Test [13] concerns Pa PAO1. The test is classed as cell-based, Pseudomonas aeruginosa. To be noted: Pa PAO1; media CA-MHB. The method, boiled down: as §1
For test [14], the system named is Pa LES431. It is filed as cell-based, Pseudomonas aeruginosa. To be noted: media CA-MHB. In short, it runs like this:
as §1

Test [15] relates to Ec AR0349 (mcr-1, COL^R). The test is classed as cell-based, Escherichia coli. As to conditions: media CA-MHB.
Test [16] concerns Ec 25922 64X-1 (COL^R). It is filed as cell-based, Escherichia coli. To be noted: media CA-MHB.
Test [17] deals with A. baumannii AB5075. The test can be described thus: A. baumannii lung infection model, lung CFU burden (C57Bl/6J mice). It is filed as in vivo, Acinetobacter baumannii. To be noted: 24 h time point; conjugates 50 mpk IP at t=−12 h and t=+1 h; AZM 25 mpk SC once at t=+1 h; n=5.
Experimental: A. baumannii AB5075 was grown to log-phase in LB at 37° C., 200 rpm shaking. Bacteria were washed once with PBS via centrifugation at 4,000 rpm. Bacteria were adjusted to desired concentration in PBS.
Prior to infection, 8-week-old female C57BI/6J mice (Jackson Labs) were anesthetized with 100 mg/kg ketamine and 10 mg/kg xylazine. Using an otoscope, mice were infected directly into the trachea. For CFU burden studies mice were infected with 2×10^7 CFU in 30 μL PBS. At 24 h post-infection mice were sacrificed by CO2 and both lung lobes were harvested. Lungs were homogenized with 1 mm silica beads in 1 mL PBS using a MagNA Lyser (Roche). Homogenization was carried out at 6,000 rpm for 60 s and chilled on ice for 60 s in-between runs. Lung homogenate was diluted in PBS ranging from 10^−1 to 10^−8, plated on LB plates and incubated at 37° C. overnight. The next day. CFU were enumerated and surviving CFU calculated relative to weight of the lung. […] Conjugates or hIgG1 (50 mpk) were administered intraperitoneally at t=−12 h pre-infection and t=+1 h post-infection. Azithromycin (Fresenius-Kabi) was administered subcutaneously once at t=+1 h post-infection. Efficacy of ADC conjugates (50 mpk) was determined upon intratracheal infection of A. baumannii AB5075. For CFU burden studies, mice (n=5 per group) were infected with 3×10^7 bacteria, sacrificed and lung CFU burden determined at 24 h time point.

Values after ≈ are worked out from the molar mass of the structure shown. Where two headings read alike, the source gives them in different places. *1 amine or outer side, *2 acyl side, *3 side chain or, on linkers, in order; H or OH if unused. Where a SMILES comes first, the peptide text is derived from it. Bridges are numbered along the chain shown (N, C = ends). Roman numbers before positions name the chains, in order. [ ]: non-standard residue; d: D form. X6 = C#CCOCCOCCOCCOCCCN1C[C@@H](C(=O)[*:1])[C@H](C(=O)[*:2])C1; Nle = CCCC[C@H](N)C(=O)O; Dab = NCC[C@H](N)C(=O)O; azaGly = NNC(=O)O

As for `C#CCOCCOCCOCCOCCCN1C[C@@H](C(=O)N[C@@H](CCCC)C(=O)N[C@@H](CCN)C(=O)N[C@H](C(=O)NNC(=O)N[C@H]2CCNC(=O)[C@H]([C@@H](C)O)NC(=O)[C@H](CCN)NC(=O)[C@H](CCN)NC(=O)[C@H](CC(C)C)NC(=O)[C@@H](Cc3ccccc3)NC(=O)[C@H](CCN)NC2=O)[C@@H](C)O)[C@H](C(=O)N[C@@H](CCCC)C(=O)N[C@@H](CCN)C(=O)N[C@H](C(=O)NNC(=O)N[C@H]2CCNC(=O)[C@H]([C@@H](C)O)NC(=O)[C@H](CCN)NC(=O)[C@H](CCN)NC(=O)[C@H](CC(C)C)NC(=O)[C@@H](Cc3ccccc3)NC(=O)[C@H](CCN)NC2=O)[C@@H](C)O)C1` [Int-122] (I: [Nle][Dab]T[azaGly][Dab][Dab][dF]L[Dab][Dab]T / II: [Nle][Dab]T[azaGly][Dab][Dab][dF]L[Dab][Dab]T; lactam I:5-I:C, II:5-II:C; linker I:N-II:N via X6), the minimal inhibitory concentration (MIC) in test [1] was 2 µg/mL (≈ 0.763 µM); in [2] (Ec 25922 + FBS (50%, heat-inactivated)), 0.25 µg/mL; in test [2] (Ec 25922), 2 µg/mL (≈ 0.763 µM); in test [3], 2 µg/mL (≈ 0.763 µM); in [4], >128 µg/mL; in test [5], 2 µg/mL (≈ 0.763 µM). For the same compound, the MIC is >128 µg/mL in test [6]; 2 µg/mL (≈ 0.763 µM) in test [8]; 2 µg/mL (≈ 0.763 µM) in test [9]; 8 µg/mL (≈ 3.05 µM) in [10]; 2 µg/mL (≈ 0.763 µM) in test [11]; 4 µg/mL (≈ 1.53 µM) in test [12]. The minimal inhibitory concentration (MIC) in [13] was 4 µg/mL (≈ 1.53 µM); in test [14] (Pa LES431 + FBS (50%, heat-inactivated)), 8 µg/mL; in test [14] (Pa LES431), 2 µg/mL (≈ 0.763 µM); in test [15], 2 µg/mL (≈ 0.763 µM); in [16], 2 µg/mL (≈ 0.763 µM). Besides, the “% survival” value in test [7] was 80%.

Take `CC[C@H]1OC(=O)[C@H](C)[C@@H](O[C@H]2C[C@@](C)(OC)[C@@H](O)[C@H](C)O2)[C@H](C)[C@@H](O[C@@H]2O[C@H](C)C[C@H](N(C)C)[C@H]2O)[C@](C)(O)C[C@@H](C)CN(C)[C@H](C)[C@@H](O)[C@]1(C)O` [azithromycin (AZM), azithromycin, reference compound]: in test [17], the “reduction of lung CFU burden” value stood at 0.76 logs.

As a reminder, the MIC is the lowest concentration that inhibits growth of the organism.
